“Also recorded” adds a separate entry of the source.
Test: Toxicities attributed to Cediranib
Format: in vivo, human

## COc1cc2c(Oc3ccc4[nH]c(C)cc4c3F)ncnc2cc1OCCCN1CCCC1 [cediranib, Cediranib]
Grade 3 TOX
  Eye disorders - Other, specify, events (patients): 1(1)
  Fatigue, events (patients): 2(2)
  Headache, events (patients): 2(2)
  Hydrocephalus, events (patients): 1(1)
  Hypertension, events (patients): 10(10)
  Hypertriglyceridemia, events (patients): 1(1)
  Hypokalemia, events (patients): 2(1)
  Hyponatremia, events (patients): 3(3)
  Lipase increased, events (patients): 1(1)
  Lymphocyte count decreased, events (patients): 5(3)
  Nausea, events (patients): 1(1)
  Neutrophil count decreased, events (patients): 2(2)
  Palmar-plantar erythrodysesthesia syndrome, events (patients): 3(3)
  Proteinuria, events (patients): 3(3)
  Reversible posterior leukoencephalopathy syndrome, events (patients): 1(1)
  Vomiting, events (patients): 1(1)
  Weight loss, events (patients): 1(1)
  White blood cell decreased, events (patients): 1(1)
Grade 4 TOX
  Alanine aminotransferase increased, events (patients): 1(1)
  Aspartate aminotransferase increased, events (patients): 1(1)
  Hypothyroidism, events (patients): 1(1)
  Lymphocyte count decreased, events (patients): 1(1)
  Nervous system disorders - Other, specify, events (patients): 1(1)
  Papilledema, events (patients): 1(1)
human, in vivo
  fatigue, number of patients: 16
  left ventricular dysfunction: No left ventricular dysfunction was identified in any of the patients; also recorded: No dose-limiting decreases in left ventricular function were observed
  palmar-plantar erythrodysesthesia syndrome, number of patients: 7
Of 48 eligible patients
  hypertension, percentage of patients: 77%
  hypothyroidism, number of patients: 15
  hypothyroidism, percentage of patients: 31%
  proteinuria, number of patients: 20
  proteinuria, percentage of patients: 42%
Of 48 eligible patients, all dose levels
  hypertension, number of patients: 37
Of thirty-two patients with diarrhea
  diarrhea grade 3, number of patients: 2
Short duration of drug exposure in the majority of patients
  effect on bone growth: bone-related AEs: no bone-related AEs were identified
Total TOX
  Abdominal pain, events (patients): 10(10)
  Acidosis, events (patients): 1(1)
  Alanine aminotransferase increased, events (patients): 65(28)
  Alkaline phosphatase increased, events (patients): 2(2)
  Anal mucositis, events (patients): 1(1)
  Anal pain, events (patients): 1(1)
  Anemia, events (patients): 3(3)
  Anorexia, events (patients): 13(10)
  Arthralgia, events (patients): 1(1)
  Aspartate aminotransferase increased, events (patients): 43(21)
  Back pain, events (patients): 2(2)
  Blood bilirubin increased, events (patients): 13(7)
  Blurred vision, events (patients): 1(1)
  Bone pain, events (patients): 2(1)
  Capillary leak syndrome, events (patients): 1(1)
  Cardiac troponin I increased, events (patients): 1(1)
  Chest wall pain, events (patients): 1(1)
  Cholesterol high, events (patients): 1(1)
  Chronic kidney disease, events (patients): 1(1)
  Confusion, events (patients): 1(1)
  Constipation, events (patients): 6(2)
  Cough, events (patients): 1(1)
  Creatinine increased, events (patients): 1(1)
  Dehydration, events (patients): 4(4)
  Depressed level of consciousness, events (patients): 1(1)
  Depression, events (patients): 1(1)
  Diarrhea, events (patients): 61(32)
  Dizziness, events (patients): 5(3)
  Dry mouth, events (patients): 1(1)
  Dry skin, events (patients): 1(1)
  Dyspepsia, events (patients): 3(3)
  Dysphasia, events (patients): 1(1)
  Edema face, events (patients): 1(1)
  Edema limbs, events (patients): 1(1)
  Endocrine disorders - Other, specify, events (patients): 1(1)
  Enterocolitis, events (patients): 1(1)
  Epistaxis, events (patients): 5(4)
  Eye disorders - Other, specify, events (patients): 1(1)
  Fatigue, events (patients): 18(16)
  Fecal incontinence, events (patients): 1(1)
  Fever, events (patients): 1(1)
  Flushing, events (patients): 3(1)
  GGT increased, events (patients): 1(1)
  Gastritis, events (patients): 1(1)
  Gastrointestinal disorders - Other, specify, events (patients): 2(2)
  Headache, events (patients): 10(7)
  Hematuria, events (patients): 5(3)
  Hemoglobin increased, events (patients): 6(2)
  Hoarseness, events (patients): 1(1)
  Hydrocephalus, events (patients): 1(1)
  Hypercalcemia, events (patients): 3(2)
  Hyperglycemia, events (patients): 9(8)
  Hyperkalemia, events (patients): 2(2)
  Hypermagnesemia, events (patients): 7(5)
  Hypernatremia, events (patients): 5(4)
  Hypertension, events (patients): 57(37)
  Hyperthyroidism, events (patients): 2(2)
  Hypertriglyceridemia, events (patients): 1(1)
  Hypoalbuminemia, events (patients): 26(13)
  Hypocalcemia, events (patients): 17(8)
  Hypoglycemia, events (patients): 3(3)
  Hypokalemia, events (patients): 16(12)
  Hypomagnesemia, events (patients): 7(5)
  Hyponatremia, events (patients): 12(6)
  Hypophosphatemia, events (patients): 14(8)
  Hypothyroidism, events (patients): 21(15)
  Hypoxia, events (patients): 1(1)
  INR increased, events (patients): 1(1)
  Intracranial hemorrhage, events (patients): 4(4)
  Investigations - Other, specify, events (patients): 2(2)
  Joint effusion, events (patients): 1(1)
  Leukoencephalopathy, events (patients): 1(1)
  Lipase increased, events (patients): 2(1)
  Lymphocyte count decreased, events (patients): 24(10)
  Malaise, events (patients): 2(1)
  Mucositis oral, events (patients): 3(3)
  Myalgia, events (patients): 2(2)
  Nausea, events (patients): 19(10)
  Nervous system disorders - Other, specify, events (patients): 1(1)
  Neutrophil count decreased, events (patients): 20(10)
  Non-cardiac chest pain, events (patients): 1(1)
  Oral pain, events (patients): 2(2)
  Pain in extremity, events (patients): 4(4)
  Pain, events (patients): 1(1)
  Palmar-plantar erythrodysesthesia syndrome, events (patients): 17(7)
  Papilledema, events (patients): 1(1)
  Pericardial effusion, events (patients): 1(1)
  Peripheral motor neuropathy, events (patients): 1(1)
  Platelet count decreased, events (patients): 25(18)
  Pleural effusion, events (patients): 1(1)
  Proteinuria, events (patients): 36(20)
  Rash acneiform, events (patients): 2(2)
  Rash maculo-papular, events (patients): 5(5)
  Rectal pain, events (patients): 1(1)
  Renal and urinary disorders - Other, specify, events (patients): 1(1)
  Respiratory, thoracic and mediastinal disorders - Other, specify, events (patients): 1(1)
  Reversible posterior leukoencephalopathy syndrome, events (patients): 2(1)
  Seizure, events (patients): 1(1)
  Serum amylase increased, events (patients): 1(1)
  Skin and subcutaneous tissue disorders - Other, specify, events (patients): 1(1)
  Skin ulceration, events (patients): 1(1)
  Stomach pain, events (patients): 2(2)
  Urinary frequency, events (patients): 1(1)
  Urinary retention, events (patients): 1(1)
  Vascular disorders - Other, specify, events (patients): 2(2)
  Voice alteration, events (patients): 2(2)
  Vomiting, events (patients): 27(13)
  Weight loss, events (patients): 3(3)
  White blood cell decreased, events (patients): 18(11)

Reference: paper PMC4561207 (Child's nervous system : ChNS : official journal of the …, 2015)
